Results as given in PubChem BioAssay (NCI).
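Where inhibition never reached the appropriate level, the endpoint shown equals the highest concentration tested. Otherwise, values were interpolated linearly from a five-concentration, 48-hour dose response in 96-well plates. GI50 is the concentration that inhibits growth by half. TGI is the concentration that stops growth completely.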

Tests used:
Experiment in all cases: NCI tumour cell line growth inhibition, 48 h
[1] = tested on: 786-0 renal
[2] = tested on: A498 renal
[3] = tested on: A549 NSCLC
[4] = tested on: ACHN renal
[5] = tested on: BT-549 breast
[6] = tested on: CAKI-1 renal
[7] = tested on: CCRF-CEM leukemia
[8] = tested on: DU-145 prostate
[9] = tested on: EKVX NSCLC
[10] = tested on: HCC-2998 colon
[11] = tested on: HCT-116 colon
[12] = tested on: HCT-15 colon
[13] = tested on: HL-60(TB) leukemia
[14] = tested on: HOP-62 NSCLC
[15] = tested on: HOP-92 NSCLC
[16] = tested on: HS 578T breast
[17] = tested on: HT29 colon
[18] = tested on: IGROV1 ovarian
[19] = tested on: K-562 leukemia
[20] = tested on: KM12 colon
[21] = tested on: LOX IMVI melanoma
[22] = tested on: M14 melanoma
[23] = tested on: MALME-3M melanoma
[24] = tested on: MCF7 breast
[25] = tested on: MDA-MB-231 breast
[26] = tested on: MOLT-4 leukemia
[27] = tested on: NCI-H226 lung
[28] = tested on: NCI-H23 lung
[29] = tested on: NCI-H460 lung
[30] = tested on: NCI-H522 lung
[31] = tested on: NCI/ADR-RES ovarian
[32] = tested on: OVCAR-3 ovarian
[33] = tested on: OVCAR-4 ovarian
[34] = tested on: OVCAR-5 ovarian
[35] = tested on: OVCAR-8 ovarian
[36] = tested on: PC-3 prostate
[37] = tested on: RPMI-8226 leukemia
[38] = tested on: RXF 393 renal
[39] = tested on: SF-268 CNS
[40] = tested on: SF-295 CNS
[41] = tested on: SF-539 CNS
[42] = tested on: SK-MEL-2 melanoma
[43] = tested on: SK-MEL-28 melanoma
[44] = tested on: SK-MEL-5 melanoma
[45] = tested on: SK-OV-3 ovarian
[46] = tested on: SN12C renal
[47] = tested on: SNB-19 CNS
[48] = tested on: SNB-75 CNS
[49] = tested on: SR leukemia
[50] = tested on: SW-620 colon
[51] = tested on: T-47D breast
[52] = tested on: TK-10 renal
[53] = tested on: U251 CNS
[54] = tested on: UACC-257 melanoma
[55] = tested on: UACC-62 melanoma
[56] = tested on: UO-31 renal
[57] = tested on: COLO 205 colon
[58] = tested on: MDA-MB-435

## O=C(N/N=C/c1ccc(Br)s1)c1[nH]c2ccc(Br)cc2c1-c1ccccc1
[1]
  GI50: 1260 nM
  TGI: > 100 µM
[2]
  GI50: 35.2 µM
  TGI: > 84.1 µM
[3]
  GI50: 1010 nM
  TGI: > 44 µM
[4]
  GI50: 903 nM
  TGI: > 45.5 µM
[5]
  GI50: 738 nM
  TGI: 2160 nM
[6]
  GI50: 1240 nM
  TGI: > 39 µM
[7]
  GI50: 370 nM
  TGI: > 100 µM
[8]
  GI50: 700 nM
  TGI: > 59.8 µM
[9]
  GI50: 4920 nM
  TGI: > 100 µM
[10]
  GI50: 1040 nM
  TGI: > 47.4 µM
[11]
  GI50: 282 nM
  TGI: > 100 µM
[12]
  GI50: 934 nM
  TGI: > 36.2 µM
[13]
  GI50: < 48.4 nM
  TGI: 387 nM
[14]
  GI50: 1290 nM
  TGI: > 66.9 µM
[15]
  GI50: 462 nM
  TGI: > 69100 nM
[16]
  GI50: 791 nM
  TGI: 41.9 µM
[17]
  GI50: 311 nM
  TGI: > 35.8 µM
[18]
  GI50: 983 nM
  TGI: > 39.1 µM
[19]
  GI50: 327 nM
  TGI: > 100 µM
[20]
  GI50: 1180 nM
  TGI: > 79.6 µM
[21]
  GI50: 312 nM
  TGI: 1350 nM
[22]
  GI50: 1030 nM
  TGI: > 100 µM
[23]
  GI50: 1310 nM
  TGI: > 68.1 µM
[24]
  GI50: 852 nM
  TGI: > 34.5 µM
[25]
  GI50: 2310 nM
  TGI: > 100 µM
[26]
  GI50: 203 nM
  TGI: 38.9 µM
[27]
  GI50: 826 nM
  TGI: > 37 µM
[28]
  GI50: 895 nM
  TGI: > 51.7 µM
[29]
  GI50: 762 nM
  TGI: 8.09 µM
[30]
  GI50: 89.8 nM
  TGI: 0.344 µM
[31]
  GI50: 131 nM
  TGI: 7.11 µM
[32]
  GI50: 638 nM
  TGI: 38.4 µM
[33]
  GI50: 1210 nM
  TGI: > 53 µM
[34]
  GI50: 863 nM
  TGI: > 86.1 µM
[35]
  GI50: 296 nM
  TGI: 1820 nM
[36]
  GI50: 386 nM
  TGI: > 52.3 µM
[37]
  GI50: 377 nM
  TGI: > 62.5 µM
[38]
  GI50: 1270 nM
  TGI: 37.3 µM
[39]
  GI50: 1610 nM
  TGI: > 100 µM
[40]
  GI50: 907 nM
  TGI: 11 µM
[41]
  GI50: 292 nM
  TGI: 1150 nM
[42]
  GI50: 710 nM
  TGI: > 50.4 µM
[43]
  GI50: 1720 nM
  TGI: > 88 µM
[44]
  GI50: 675 nM
  TGI: 1520 nM
[45]
  GI50: 4070 nM
  TGI: > 100000 nM
[46]
  GI50: 547 nM
  TGI: > 38.2 µM
[47]
  GI50: 1070 nM
  TGI: > 95.7 µM
[48]
  GI50: 843 nM
  TGI: 7.95 µM
[49]
  GI50: 270 nM
  TGI: > 50.1 µM
[50]
  GI50: 418 nM
  TGI: > 100 µM
[51]
  GI50: 7.05 µM
  TGI: > 100 µM
[52]
  GI50: 8.83 µM
  TGI: > 82.8 µM
[53]
  GI50: 989 nM
  TGI: > 39.9 µM
[54]
  GI50: 1060 nM
  TGI: > 88.3 µM
[55]
  GI50: 1030 nM
  TGI: > 46.1 µM
[56]
  GI50: 1400 nM
  TGI: > 100 µM

## Nc1ccc(-c2nnc(SCc3ccc(O)c4ncccc34)n2-c2ccccc2)cc1
[1]
  GI50: 238 nM
  TGI: > 100 µM
[2]
  GI50: 0.933 µM
  TGI: > 24.6 µM
[3]
  GI50: 40.3 nM
  TGI: > 100 µM
[4]
  GI50: 63.9 nM
[5]
  GI50: 29.1 nM
  TGI: > 100000 nM
[6]
  GI50: 62.7 nM
  TGI: > 100 µM
[7]
  GI50: 36.8 nM
  TGI: > 100 µM
[57]
  GI50: 1010 nM
  TGI: 3.42 µM
[8]
  GI50: 33.9 nM
  TGI: > 100 µM
[9]
  GI50: 415 nM
  TGI: > 100 µM
[10]
  GI50: 58.3 nM
  TGI: > 100 µM
[11]
  GI50: < 17.2 nM
  TGI: > 37.4 µM
[12]
  GI50: 49.8 nM
  TGI: > 100 µM
[13]
  GI50: 40.5 nM
  TGI: > 100000 nM
[14]
  GI50: 66.1 nM
  TGI: > 100 µM
[15]
  TGI: 20.3 nM
[16]
  GI50: 47.8 nM
  TGI: > 100 µM
[17]
  GI50: 890 nM
  TGI: > 100 µM
[18]
  GI50: 49.7 nM
  TGI: > 100 µM
[19]
  GI50: 15.2 nM
  TGI: > 100 µM
[20]
  GI50: 50.4 nM
  TGI: > 100 µM
[22]
  GI50: 40.2 nM
  TGI: 4.3 µM
[24]
  GI50: 28.7 nM
  TGI: > 100 µM
[25]
  GI50: 69.5 nM
  TGI: 98.8 µM
[58]
  GI50: 32.1 nM
  TGI: > 100 µM
[26]
  GI50: 48.5 nM
  TGI: > 100 µM
[27]
  GI50: 1150 nM
  TGI: > 100 µM
[28]
  GI50: 32.2 nM
  TGI: > 100 µM
[29]
  GI50: 19 nM
  TGI: > 33 µM
[30]
  GI50: 26.8 nM
  TGI: 6.81 µM
[31]
  GI50: 2290 nM
  TGI: > 100 µM
[33]
  GI50: 68.8 nM
  TGI: > 100 µM
[34]
  GI50: 290 nM
  TGI: > 100 µM
[35]
  GI50: 38.7 nM
  TGI: > 100000 nM
[36]
  GI50: 17 nM
  TGI: > 100 µM
[37]
  GI50: 24.4 nM
  TGI: > 100 µM
[38]
  GI50: 81.6 nM
  TGI: > 100 µM
[39]
  GI50: 45.2 nM
  TGI: > 100 µM
[41]
  GI50: 48 nM
  TGI: > 100000 nM
[42]
  GI50: 64.4 nM
  TGI: 4.84 µM
[43]
  GI50: 72.4 nM
  TGI: > 100 µM
[44]
  GI50: 25.2 nM
  TGI: 80.4 nM
[45]
  GI50: 118 nM
  TGI: 911 nM
[46]
  GI50: 31.8 nM
  TGI: > 100 µM
[47]
  GI50: 32.3 nM
  TGI: > 100 µM
[49]
  GI50: 44.1 nM
  TGI: > 100 µM
[50]
  GI50: 45.4 nM
  TGI: > 100 µM
[51]
  GI50: 0.0735 µM
  TGI: > 100 µM
[53]
  GI50: 25.4 nM
  TGI: > 100 µM
[54]
  GI50: 62.2 nM
[55]
  GI50: 65 nM
  TGI: 13.2 µM
[56]
  GI50: 140 nM
  TGI: > 100 µM
